Experiment [1] concerns the target Sodium-dependent serotonin transporter (Homo sapiens, UniProt P31645). It is filed as cell-based, JAR.
Description: Inhibition concentration against [3H]5-HT uptake by human serotonin transporter in JAR cells
The target of experiment [2] is T1, Adrenergic receptor alpha-1 (Rattus norvegicus, UniProt P15823+P23944+P43140).
T1 sequence (P15823 whole entry): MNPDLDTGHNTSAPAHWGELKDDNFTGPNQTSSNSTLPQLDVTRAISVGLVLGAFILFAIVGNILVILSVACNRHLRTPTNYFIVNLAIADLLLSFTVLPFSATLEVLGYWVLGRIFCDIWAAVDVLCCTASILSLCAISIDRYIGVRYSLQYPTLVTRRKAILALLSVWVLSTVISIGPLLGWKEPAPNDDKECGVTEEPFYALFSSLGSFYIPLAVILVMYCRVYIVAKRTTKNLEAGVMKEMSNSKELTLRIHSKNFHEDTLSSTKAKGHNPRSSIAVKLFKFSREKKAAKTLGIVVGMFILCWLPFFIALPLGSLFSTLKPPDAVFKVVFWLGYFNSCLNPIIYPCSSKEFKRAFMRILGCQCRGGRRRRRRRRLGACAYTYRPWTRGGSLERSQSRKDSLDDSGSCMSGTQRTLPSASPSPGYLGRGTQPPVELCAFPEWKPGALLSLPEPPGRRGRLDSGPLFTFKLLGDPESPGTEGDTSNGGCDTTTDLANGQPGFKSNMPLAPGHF
T1 sequence (P23944 whole entry): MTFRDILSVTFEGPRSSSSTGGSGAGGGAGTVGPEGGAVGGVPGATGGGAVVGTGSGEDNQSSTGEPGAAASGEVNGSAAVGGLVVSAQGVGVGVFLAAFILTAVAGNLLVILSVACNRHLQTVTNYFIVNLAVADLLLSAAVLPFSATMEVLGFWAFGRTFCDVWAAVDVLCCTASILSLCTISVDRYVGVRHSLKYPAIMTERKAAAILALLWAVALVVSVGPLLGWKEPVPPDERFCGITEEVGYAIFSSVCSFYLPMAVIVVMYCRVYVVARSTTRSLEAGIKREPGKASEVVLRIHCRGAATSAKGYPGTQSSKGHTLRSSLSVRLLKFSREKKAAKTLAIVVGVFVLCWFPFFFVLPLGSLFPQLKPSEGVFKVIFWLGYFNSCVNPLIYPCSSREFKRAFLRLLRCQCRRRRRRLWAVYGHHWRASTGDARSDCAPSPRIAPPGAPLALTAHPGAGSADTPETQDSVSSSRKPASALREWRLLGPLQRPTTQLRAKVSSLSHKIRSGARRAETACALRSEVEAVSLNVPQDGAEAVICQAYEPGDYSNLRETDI
T1 sequence (P43140 whole entry): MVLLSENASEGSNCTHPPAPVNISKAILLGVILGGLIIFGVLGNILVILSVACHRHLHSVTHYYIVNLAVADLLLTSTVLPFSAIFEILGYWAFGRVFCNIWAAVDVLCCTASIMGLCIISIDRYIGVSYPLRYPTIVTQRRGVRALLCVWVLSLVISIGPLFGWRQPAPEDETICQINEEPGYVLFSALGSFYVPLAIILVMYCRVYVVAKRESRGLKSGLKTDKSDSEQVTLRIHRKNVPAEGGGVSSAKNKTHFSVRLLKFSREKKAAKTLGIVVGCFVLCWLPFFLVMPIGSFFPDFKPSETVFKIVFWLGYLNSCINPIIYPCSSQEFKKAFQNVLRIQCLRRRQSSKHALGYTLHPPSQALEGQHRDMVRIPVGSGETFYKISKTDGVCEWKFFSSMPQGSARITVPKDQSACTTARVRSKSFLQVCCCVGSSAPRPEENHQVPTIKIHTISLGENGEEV
Description: Binding affinity against rat cortical alpha-1 adrenergic receptor labeled with [3H]prazosin radioligand

Experiment [3] deals with Adrenergic receptor alpha-1 (Rattus norvegicus) (UniProt P15823+P23944+P43140). In words: Percent inhibition against rat cortical alpha-1 adrenergic receptor labeled with [3H]prazosin radioligand was determined. The experiment is classed as protein assay. To be noted: concentration not given here.
For experiment [4], the target named is Sodium-dependent serotonin transporter (Rattus norvegicus, UniProt P31652).
Sequence of Sodium-dependent serotonin transporter (Rattus norvegicus, UniProt P31652) (P31652 whole entry): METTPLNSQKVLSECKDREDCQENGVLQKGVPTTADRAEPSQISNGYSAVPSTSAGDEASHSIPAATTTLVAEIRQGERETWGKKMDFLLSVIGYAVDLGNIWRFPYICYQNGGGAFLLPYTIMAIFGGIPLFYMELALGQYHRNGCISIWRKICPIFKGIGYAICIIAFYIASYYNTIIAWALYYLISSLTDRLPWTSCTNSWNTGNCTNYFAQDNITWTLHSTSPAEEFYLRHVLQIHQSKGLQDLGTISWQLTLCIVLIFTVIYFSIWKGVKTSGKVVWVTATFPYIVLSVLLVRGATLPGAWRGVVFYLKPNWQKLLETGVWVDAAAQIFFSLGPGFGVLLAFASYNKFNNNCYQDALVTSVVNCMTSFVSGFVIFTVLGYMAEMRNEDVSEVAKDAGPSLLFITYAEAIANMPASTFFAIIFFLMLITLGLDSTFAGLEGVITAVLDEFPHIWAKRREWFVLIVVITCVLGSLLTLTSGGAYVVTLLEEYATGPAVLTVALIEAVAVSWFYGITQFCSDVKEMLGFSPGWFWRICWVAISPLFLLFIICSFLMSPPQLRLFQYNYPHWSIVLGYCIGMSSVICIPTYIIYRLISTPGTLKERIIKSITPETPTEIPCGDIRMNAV
Description: Binding affinity against serotonin transporter in rat cortical tissues using radioligand [3H]paroxetine

Sequence of Sodium-dependent serotonin transporter (Homo sapiens, UniProt P31645) (P31645 whole entry): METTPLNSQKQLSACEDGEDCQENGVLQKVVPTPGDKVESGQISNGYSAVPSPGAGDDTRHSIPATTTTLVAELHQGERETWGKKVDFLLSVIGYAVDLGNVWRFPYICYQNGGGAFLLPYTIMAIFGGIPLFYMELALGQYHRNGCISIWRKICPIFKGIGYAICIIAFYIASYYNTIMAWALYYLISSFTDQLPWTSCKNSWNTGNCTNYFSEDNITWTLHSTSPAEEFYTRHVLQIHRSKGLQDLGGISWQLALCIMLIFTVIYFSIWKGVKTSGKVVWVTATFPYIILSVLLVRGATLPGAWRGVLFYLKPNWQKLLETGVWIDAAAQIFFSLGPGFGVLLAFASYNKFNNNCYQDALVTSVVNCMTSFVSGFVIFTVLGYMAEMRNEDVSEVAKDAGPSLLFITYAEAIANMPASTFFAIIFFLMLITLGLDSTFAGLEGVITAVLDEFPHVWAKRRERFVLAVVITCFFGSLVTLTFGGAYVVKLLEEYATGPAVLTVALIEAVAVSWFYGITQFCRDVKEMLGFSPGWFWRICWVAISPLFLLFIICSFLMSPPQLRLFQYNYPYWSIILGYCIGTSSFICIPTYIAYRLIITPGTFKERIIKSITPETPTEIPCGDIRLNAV

One may read the IC50 as the concentration that gives 50% inhibition. Read a high IC50 as lower potency. As to `Fc1ccc2[nH]cc(CCCNCCOc3cccc4c3CCCC4)c2c1`, the IC50 in experiment [1] amounted to 305 nM.

In general, Ki refers to a dissociation constant, usually derived from enzyme kinetics or from competition with a known ligand. Read a high Ki as a looser hold on the target. In experiment [2], `Fc1ccc2[nH]cc(CCCNCCOc3cc(Cl)cc4[nH]cnc34)c2c1` registered a Ki of 4.6 nM. Besides, the concentration for half-maximal inhibition (IC50) in experiment [1] is 4.5 nM.

The inhibition is the percentage by which the read-out fell short of the control. A lower inhibition goes with a response near the control. In experiment [3], `Fc1ccc2[nH]cc(CCCNCCOc3cccc4[nH]cnc34)c2c1` had an inhibition of 93%. Moreover, the Ki in experiment [2] was found to be 100 nM.

Take `Fc1cc2c(c(OCCNCCCc3c[nH]c4ccc(F)cc34)c1)OCCC2`: the inhibition in experiment [3] was 79%. The compound also came in with an inhibition constant Ki in experiment [2] of 100 nM. The concentration for half-maximal inhibition (IC50) in experiment [1] was 7 nM.

`Fc1cc2c(c(OCCNCCc3c[nH]c4ccccc34)c1)OCCC2` had an inhibition constant (Ki) in experiment [2] of 4.4 nM. Moreover, in experiment [1], the IC50 is 42.2 nM.

In turn, `Fc1cc2c(c(OCCNCCc3c[nH]c4ccc(F)cc34)c1)OCC2` displayed an inhibition in experiment [3] of 85%. In experiment [2], this compound showed a Ki of 100 nM. For the same compound, the concentration for half-maximal inhibition (IC50) in experiment [1] is 254 nM.

For `Fc1ccc2[nH]cc(CCCNCCOc3ccccc3)c2c1`, the inhibitory constant (Ki) in experiment [2] is 3.4 nM; in experiment [4], 120 nM. Also, half-maximal inhibition in experiment [1] (IC50) required 3790 nM.

Take `c1ccc2c(OCCNCCCc3c[nH]c4ccccc34)cccc2c1`: the inhibition constant (Ki) in experiment [2] stood at 204 nM; in experiment [4], 123 nM. The same compound returned a concentration for half-maximal inhibition (IC50) in experiment [1] of 2170 nM.

With `Fc1ccc2[nH]cc(CCCNCCOc3cccc4[nH]ccc34)c2c1`, the inhibition constant Ki in experiment [2] stood at 5.6 nM. Inhibition in experiment [1] was half-maximal at 24.4 nM (IC50).

`COc1ccc(F)cc1OCCNCCc1c[nH]c2ccccc12`: the Ki in experiment [2] came to 3.3 nM; in experiment [4], 43 nM. The compound further yielded an IC50 in experiment [1] of 249 nM.

`Fc1ccc2[nH]cc(CCCNCCOc3cccc4c3OCC4)c2c1` came in with an inhibition in experiment [3] of 85%. This compound yielded an inhibition constant (Ki) in experiment [2] of 100 nM. In experiment [1], this compound registered an IC50 of 9.7 nM.

`c1ccc2c(CCCCNCCOc3cccc4[nH]ccc34)c[nH]c2c1` had an IC50 in experiment [1] of 862 nM.

`Fc1cc(OCCNCCCc2c[nH]c3ccc(F)cc23)c2occc2c1`: the inhibitory constant (Ki) amounted to 34.3 nM in experiment [2] and 2.2 nM in experiment [4].

`COc1ccccc1OCCNCCCc1c[nH]c2ccc(F)cc12` displayed an inhibition in experiment [3] of 95%. The compound also had a 50% inhibitory concentration (IC50) in experiment [1] of 20 nM.

On to `Fc1ccc2[nH]cc(CCCNCCOc3cccc4nccnc34)c2c1`, for which the Ki in experiment [2] turned out to be 52 nM; in experiment [4] it was 1.2 nM. Further, the IC50 in experiment [1] came to 20 nM.

With `COc1ccc(F)cc1OCCNCCCc1c[nH]c2ccc(F)cc12`, the inhibitory constant (Ki) in experiment [2] is on record as 2.5 nM. The same compound returned an IC50 in experiment [1] of 20.5 nM.

Turning to `COc1ccc(F)cc1OCCNCCc1c[nH]c2ccc(F)cc12`, the values for the Ki in experiment [2] and in experiment [4] were 4.8 nM and 23.5 nM, respectively.

`Fc1cc(OCCNCCCc2c[nH]c3ccc(F)cc23)c2c(c1)OCCO2`: the Ki in experiment [2] turned out to be 13.3 nM; in experiment [4] it was 0.49 nM. This compound gave an IC50 in experiment [1] of 24.6 nM.

With `COc1ccccc1OCCNCCCCc1c[nH]c2ccccc12`, the inhibition in experiment [3] worked out at 99%. For the same compound, the inhibition constant Ki in experiment [2] worked out at 100 nM.

With `Fc1cc2c(c(OCCNCCCc3c[nH]c4ccc(F)cc34)c1)OCC2`, the Ki in experiment [2] was found to be 9.2 nM; in experiment [4], 1.17 nM. The compound further displayed an IC50 in experiment [1] of 61.5 nM.

In turn, `Fc1cc2c(c(OCCNCCc3c[nH]c4ccc(F)cc34)c1)OCCC2` showed a Ki in experiment [2] of 11.9 nM. In addition, 86.4 nM corresponded to half-maximal inhibition in experiment [1] (IC50).

As for `c1ccc2c(CCCNCCOc3cccc4[nH]ccc34)c[nH]c2c1`, the inhibition in experiment [3] was found to be 89%. In experiment [2], the Ki is 100 nM. In addition, inhibition in experiment [1] was half-maximal at 154 nM (IC50).

For the compound `Fc1ccc2[nH]cc(CCCNCCOc3cccc4ccoc34)c2c1`, the inhibitory constant (Ki) in experiment [2] stood at 27.7 nM. The compound also showed an IC50 in experiment [1] of 28.1 nM.

Turning to `Fc1ccc2[nH]cc(CCNCCOc3cccc4c3OCCO4)c2c1`, the inhibition in experiment [3] stood at 80%. Further, the inhibition constant Ki in experiment [2] stood at 100 nM; in experiment [4] it was 13.5 nM. In addition, half-maximal inhibition in experiment [1] (IC50) was put at 84.7 nM.

Regarding `Fc1ccc2[nH]cc(CCCNCCOc3cccc4c3OCCO4)c2c1`, in experiment [2], the inhibition constant (Ki) was determined as 9.6 nM. In experiment [1], this compound registered an IC50 of 6.3 nM.

Consider `c1cnc2c(OCCNCCCc3c[nH]c4ccccc34)cccc2c1`, for which, in experiment [2], the inhibition constant (Ki) is listed as 7.4 nM.

Take `Fc1ccc2[nH]cc(CCCNCCOc3cccc4ncccc34)c2c1`: the inhibition constant (Ki) in experiment [2] was 122 nM; in experiment [4] it was 1.1 nM. Moreover, the 50% inhibitory concentration (IC50) in experiment [1] was determined as 73 nM.

The values above are taken from ChEMBL document CHEMBL1148370, “Studies toward the discovery of the next generation of antidepressants. 3. Dual 5-HT1A and serotonin transporter affinity within a class of N-aryloxyethylindolylalkylamines” (J Med Chem, 2004).
